Experimental data published in PubChem BioAssay AID330 (DTP/NCI, 2004).
Values joined by “and” are separate entries in the source; they are usually repeats but may differ in a detail not shown here. Equal entries are not always repeated. Inconclusive results and toxic doses are left out.

Test system: P388 leukemia ip, CD2F1 mice, survival T/C
Assay: NCI In Vivo Anticancer Drug Screen. Data for tumor model P388 Leukemia (intraperitoneal) in CD2F1 (CDF1) mice
Conditions: endpoint: median survival time, higher = longer survival
Summary of the method: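 Mice carrying the transplanted tumor received test compound or vehicle. Survival was recorded in each group, and the value is the treated-group measurement divided by that of the vehicle-treated control group.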

[1] = dose: 50.0 mg/kg/injection, schedule: Q01DX001 (ip), vehicle: Klucel (hydroxypropylcellulose) (HPC)
[2] = dose: 100.0 mg/kg/injection, schedule: Q01DX001 (ip), vehicle: Klucel (hydroxypropylcellulose) (HPC)
[3] = dose: 50.0 mg/kg/injection, schedule: Q01DX005 (ip), vehicle: Klucel (hydroxypropylcellulose) (HPC)
[4] = dose: 100.0 mg/kg/injection, schedule: Q01DX005 (ip), vehicle: Klucel (hydroxypropylcellulose) (HPC)
[5] = dose: 25.0 mg/kg/injection, schedule: Q04DX003 (ip), vehicle: saline sonified
[6] = dose: 50.0 mg/kg/injection, schedule: Q01DX009 (ip), vehicle: saline
[7] = dose: 100.0 mg/kg/injection, schedule: Q01DX009 (ip), vehicle: saline

CC(C)CNC(=O)C(=O)NCC(C)C
T/C (dose: 25.0 mg/kg/injection, schedule: Q01DX001 (ip), vehicle: Klucel (hydroxypropylcellulose) (HPC)): 98 % of control
T/C [1]: 101 % of control
T/C [2]: 101 % of control

NC(CP(=O)(O)O)C(=O)O (centres undefined)
T/C (dose: 50.0 mg/kg/injection, schedule: Q01DX005 (ip), vehicle: saline): 106 % of control
T/C (dose: 100.0 mg/kg/injection, schedule: Q01DX005 (ip), vehicle: saline): 101 % of control
T/C (dose: 200.0 mg/kg/injection, schedule: Q01DX005 (ip), vehicle: saline): 91 % of control

CC1=CCC(C(C)(O)C2CCC3(C)C4=C(C=C5C=CC(=O)OC(C)(C)C5CC4)CCC23C)OC1=O (centres undefined)
T/C (dose: 12.5 mg/kg/injection, schedule: Q01DX005 (ip), vehicle: other): 94 % of control
T/C (dose: 25.0 mg/kg/injection, schedule: Q01DX005 (ip), vehicle: other): 92 % of control

N=C(N)c1ccc(N=Nc2c(O)ccc3cc(O)ccc23)cc1
T/C (dose: 3.12 mg/kg/injection, schedule: Q01DX005 (ip), vehicle: Klucel (hydroxypropylcellulose) (HPC)): 104 % of control
T/C (dose: 6.25 mg/kg/injection, schedule: Q01DX005 (ip), vehicle: Klucel (hydroxypropylcellulose) (HPC)): 101 % of control and 102 % of control
T/C (dose: 12.5 mg/kg/injection, schedule: Q01DX005 (ip), vehicle: Klucel (hydroxypropylcellulose) (HPC)): 116 % of control (2×) and 95 % of control

C=C1CCC2(C)C(O)CC3(C)C(CCC4C5(C)CCC(OC(C)=O)C(C)(C)C5CCC43C)C2C1C (centres undefined)
T/C (dose: 1.0 mg/kg/injection, schedule: Q01DX009 (ip), vehicle: alcohol): 107 % of control
T/C (dose: 2.0 mg/kg/injection, schedule: Q01DX009 (ip), vehicle: alcohol): 105 % of control
T/C (dose: 4.0 mg/kg/injection, schedule: Q01DX009 (ip), vehicle: alcohol): 115 % of control

Nc1ncnc2c1ncn2CC(O)CBr (centres undefined)
T/C [3]: 101 % of control
T/C [4]: 104 % of control
T/C (dose: 200.0 mg/kg/injection, schedule: Q01DX005 (ip), vehicle: Klucel (hydroxypropylcellulose) (HPC)): 93 % of control

CCCCCCCCCCCCOc1ccccc1C(=O)O
T/C (dose: 6.25 mg/kg/injection, schedule: Q04DX003 (ip), vehicle: saline sonified): 100 % of control
T/C (dose: 12.5 mg/kg/injection, schedule: Q04DX003 (ip), vehicle: saline sonified): 100 % of control
T/C [5]: 100 % of control

Cc1cc2[nH]c3ccccc3n2c(=O)c1N=Nc1ccccc1
T/C (dose: 87.5 mg/kg/injection, schedule: Q04DX002 (ip), vehicle: Klucel (hydroxypropylcellulose) (HPC)): 101 % of control
T/C (dose: 175.0 mg/kg/injection, schedule: Q04DX002 (ip), vehicle: Klucel (hydroxypropylcellulose) (HPC)): 92 % of control
T/C (dose: 350.0 mg/kg/injection, schedule: Q04DX002 (ip), vehicle: Klucel (hydroxypropylcellulose) (HPC)): 99 % of control

CN=C(N)N/N=C(\C)c1ccc2c(ccc3ccccc32)c1
T/C (dose: 6.25 mg/kg/injection, schedule: Q04DX002 (ip), vehicle: saline with Tween-80): 105 % of control and 108 % of control
T/C (dose: 12.5 mg/kg/injection, schedule: Q04DX002 (ip), vehicle: saline with Tween-80): 104 % of control and 107 % of control
T/C (dose: 25.0 mg/kg/injection, schedule: Q04DX002 (ip), vehicle: saline with Tween-80): 122 % of control
T/C (dose: 50.0 mg/kg/injection, schedule: Q04DX002 (ip), vehicle: saline with Tween-80): 123 % of control
T/C (dose: 100.0 mg/kg/injection, schedule: Q04DX002 (ip), vehicle: saline with Tween-80): 123 % of control
T/C (dose: 200.0 mg/kg/injection, schedule: Q04DX002 (ip), vehicle: saline with Tween-80): 107 % of control

Cc1nc(Cl)c(C)c(=O)[nH]1
T/C [6]: 165 % of control
T/C [7]: 166 % of control

Nc1c[nH]c(=S)s1
T/C (dose: 25.0 mg/kg/injection, schedule: Q01DX009 (ip), vehicle: saline with Tween-80): 116 % of control
T/C (dose: 50.0 mg/kg/injection, schedule: Q01DX009 (ip), vehicle: saline with Tween-80): 114 % of control
T/C (dose: 100.0 mg/kg/injection, schedule: Q01DX009 (ip), vehicle: saline with Tween-80): 94 % of control

Cn1cnnc1[N+](=O)[O-]
T/C [5]: 100 % of control
T/C (dose: 50.0 mg/kg/injection, schedule: Q04DX003 (ip), vehicle: saline sonified): 95 % of control
T/C (dose: 100.0 mg/kg/injection, schedule: Q04DX003 (ip), vehicle: saline sonified): 90 % of control

CN1/C(=C2\C=CC=C\C2=N/S(=O)(=O)c2ccc(Cl)cc2)Sc2ccccc21
T/C (dose: 100.0 mg/kg/injection, schedule: Q04DX003 (ip), vehicle: saline): 103 % of control
T/C (dose: 200.0 mg/kg/injection, schedule: Q04DX003 (ip), vehicle: saline): 104 % of control
T/C (dose: 400.0 mg/kg/injection, schedule: Q04DX003 (ip), vehicle: saline): 99 % of control

CCOC(=O)/C=C(\C)NC1CC(OC2CC(O)(C(C)=O)Cc3c(O)c4c(c(O)c32)C(=O)c2c(OC)cccc2C4=O)OC(C)C1O (centres undefined)
T/C (dose: 6.25 mg/kg/injection, schedule: Q04DX003 (ip), vehicle: distilled water + Tween-80): 110 % of control
T/C (dose: 12.5 mg/kg/injection, schedule: Q04DX003 (ip), vehicle: distilled water + Tween-80): 119 % of control
T/C (dose: 50.0 mg/kg/injection, schedule: Q04DX003 (ip), vehicle: distilled water + Tween-80): 118 % of control

Cc1ccc2ccccc2c1C(=N)c1cc2ccccc2c2ccccc12
T/C [3]: 105 % of control
T/C [4]: 87 % of control

Cc1ccc2c3c(c(O)c(C(C)(C)O)cc13)OC2=O
T/C (dose: 15.63 mg/kg/injection, schedule: Q01DX005 (ip), vehicle: Klucel (hydroxypropylcellulose) (HPC)): 91 % of control
T/C (dose: 31.25 mg/kg/injection, schedule: Q01DX005 (ip), vehicle: Klucel (hydroxypropylcellulose) (HPC)): 90 % of control
T/C (dose: 62.5 mg/kg/injection, schedule: Q01DX005 (ip), vehicle: Klucel (hydroxypropylcellulose) (HPC)): 93 % of control
T/C (dose: 125.0 mg/kg/injection, schedule: Q01DX005 (ip), vehicle: Klucel (hydroxypropylcellulose) (HPC)): 93 % of control
T/C (dose: 250.0 mg/kg/injection, schedule: Q01DX005 (ip), vehicle: Klucel (hydroxypropylcellulose) (HPC)): 93 % of control

Cc1ocnc1Cc1ccc(O)c(O)c1
T/C (dose: 100.0 mg/kg/injection, schedule: Q01DX001 (ip), vehicle: saline): 101 % of control
T/C (dose: 200.0 mg/kg/injection, schedule: Q01DX001 (ip), vehicle: saline): 96 % of control
T/C (dose: 400.0 mg/kg/injection, schedule: Q01DX001 (ip), vehicle: saline): 98 % of control

Cn1ncc2c(=O)[nH]cnc21
T/C (dose: 50.0 mg/kg/injection, schedule: Q01DX009 (ip), vehicle: Klucel (hydroxypropylcellulose) (HPC)): 93 % of control
T/C (dose: 100.0 mg/kg/injection, schedule: Q01DX009 (ip), vehicle: Klucel (hydroxypropylcellulose) (HPC)): 93 % of control
T/C (dose: 200.0 mg/kg/injection, schedule: Q01DX009 (ip), vehicle: Klucel (hydroxypropylcellulose) (HPC)): 96 % of control
T/C (dose: 400.0 mg/kg/injection, schedule: Q01DX009 (ip), vehicle: Klucel (hydroxypropylcellulose) (HPC)): 97 % of control

O=C(O)c1cc(-c2ccc(Cl)cc2)nc2c1ccc1ccccc12
T/C (dose: 25.0 mg/kg/injection, schedule: Q01DX005 (ip), vehicle: Klucel (hydroxypropylcellulose) (HPC)): 100 % of control
T/C [3]: 100 % of control
T/C [4]: 100 % of control

Nc1[nH]c(=S)[nH]c(=O)c1N=Cc1ccc(Cl)c(Cl)c1
T/C [1]: 100 % of control
T/C [2]: 100 % of control and 102 % of control and 114 % of control
T/C (dose: 200.0 mg/kg/injection, schedule: Q01DX001 (ip), vehicle: Klucel (hydroxypropylcellulose) (HPC)): 103 % of control (2×) and 116 % of control
T/C (dose: 400.0 mg/kg/injection, schedule: Q01DX001 (ip), vehicle: Klucel (hydroxypropylcellulose) (HPC)): 107 % of control and 110 % of control

O=C(Nc1cccc(Cl)c1Cl)Oc1ccc(Cl)cc1C(=O)c1ccccc1
T/C [6]: 94 % of control
T/C [7]: 89 % of control
T/C (dose: 200.0 mg/kg/injection, schedule: Q01DX009 (ip), vehicle: saline): 99 % of control

CCn1c2ccc(C(=O)CCCN3CCCCC3)cc2c2cc(C(=O)CCCN3CCCCC3)ccc21
T/C (dose: 6.25 mg/kg/injection, schedule: Q01DX009 (ip), vehicle: saline): 100 % of control
T/C (dose: 12.5 mg/kg/injection, schedule: Q01DX009 (ip), vehicle: saline): 103 % of control and 113 % of control and 97 % of control
T/C (dose: 25.0 mg/kg/injection, schedule: Q01DX009 (ip), vehicle: saline): 102 % of control and 121 % of control and 122 % of control

CCNC(=NC)c1ccc(NC(=O)c2ccc(C(=O)Nc3ccc(C(=NC)NCC)cc3)cc2)cc1
T/C (dose: 1.5 mg/kg/injection, schedule: Q04DX003 (ip), vehicle: saline with Tween-80): 95 % of control
T/C (dose: 3.0 mg/kg/injection, schedule: Q01DX009 (ip), vehicle: saline with Tween-80): 172 % of control
T/C (dose: 3.0 mg/kg/injection, schedule: Q04DX003 (ip), vehicle: saline with Tween-80): 100 % of control
T/C (dose: 6.0 mg/kg/injection, schedule: Q04DX003 (ip), vehicle: saline with Tween-80): 109 % of control
